Reference: patent US20140200233A1, “USE OF MAD2L2 AS A STRATIFICATION MARKER IN THE TREATMENT OF BREAST TUMOURS WITH NOVEL PAN-CDK INHIBITORS” (BAYER INTELLECTUAL PROPERTY GMBH, priority 2011, published 2014)

Legend:
Type in all cases: cell-based
KPL-1 = assay: Proliferation assay, Method 2 (Vybrant MTT); details: Homo sapiens, KPL-1 breast tumour cell line
MDA-MB-453 = assay: Proliferation assay, Method 2 (Vybrant MTT); details: Homo sapiens, MDA-MB-453 breast tumour cell line
Hs 578T = assay: Proliferation assay, Method 2 (Vybrant MTT); details: Homo sapiens, Hs 578T breast tumour cell line
MDA-MB-231 = assay: Proliferation assay, Method 2 (Vybrant MTT); details: Homo sapiens, MDA-MB-231 breast tumour cell line
MDA-MB-468 = assay: Proliferation assay, Method 2 (Vybrant MTT); details: Homo sapiens, MDA-MB-468 breast tumour cell line
ZR-75-1 = assay: Proliferation assay, Method 2 (Vybrant MTT); details: Homo sapiens, ZR-75-1 breast tumour cell line
T-47D = assay: Proliferation assay, Method 2 (Vybrant MTT); details: Homo sapiens, T47D, T-47D breast tumour cell line
MDA-MB-435s = assay: Proliferation assay, Method 2 (Vybrant MTT); details: Homo sapiens, MDA-MB-435s breast tumour cell line
DU-4475 = assay: Proliferation assay, Method 2 (Vybrant MTT); details: Homo sapiens, DU-4475 breast tumour cell line
BT-20 = assay: Proliferation assay, Method 2 (Vybrant MTT); details: Homo sapiens, BT-20 breast tumour cell line
BT-474 = assay: Proliferation assay, Method 2 (Vybrant MTT); details: Homo sapiens, BT-474 breast tumour cell line
EVSA-T = assay: Proliferation assay, Method 2 (Vybrant MTT); details: Homo sapiens, EVSA-T breast tumour cell line
BT-549 = assay: Proliferation assay, Method 2 (Vybrant MTT); details: Homo sapiens, BT-549 breast tumour cell line
786-O = assay: Proliferation assay, Method 1 (crystal violet); details: Homo sapiens, 786-0, 96 h, 786-O renal carcinoma cell line, 4 days
Method: (§1) This assay was used for the following cell lines: MCF 10A, SK-BR-3, MCF7, HCT 116, HT-29, SW480, Caco-2, MIAPaCa-2, DU145, PC3, HeLa, Caki2, 786-0, A-375, NCI-H460, NCI-H69, NCI-H1975, A549.
(§2) Cultivated human tumour cells (originally obtained from ATCC, HeLa-MaTu and HeLa-MaTu-ADR, originally obtained from Epo GmbH, Berlin) were plated in a density of from 1000 to 5000 cells/measurement point, depending on the growth rate of the cell line, in a 96-well multititre plate in 200 μl of growth medium (DMEM/HAMS F12, 2 mM L-glutamine, 10% foetal calf serum). After 24 hours, the cells of one plate (zero-point plate) were stained with crystal violet (see below), while the medium of the other plates was replaced by fresh culture medium (200 μl) with added test substances in various concentrations (0 μM, and in the range of 0.01-30 μM; the final concentration of the solvent dimethyl sulphoxide was 0.5%). The cells were incubated in the presence of the test substances for 4 days. Cell proliferation was determined by staining the cells with crystal violet: the cells were fixated by addition of 20 μl/measuring point of an 11% strength glutaraldehyde solution for 15 min at room temperature. After the fixated cells had been washed three times with water, the plates were dried at room temperature. The cells were stained by addition of 100 μl/measuring point of a 0.1% strength crystal violet solution (pH adjusted to pH 3 by addition of acetic acid). After the stained cells had been washed three times with water, the plates were dried at room temperature. The dye was dissolved by addition of 100 μl/measuring point of a 10% strength acetic acid solution. The absorption was determined photometrically at a wavelength of 595 nm. The change in percent of the cell growth was calculated by normalizing the measured values to the absorption values of the zero-point plate (=0%) and the absorption of the untreated (0 μM) cells (=100%). The measured data were normalized to 0% inhibition (cell proliferation without inhibitor) and 100% inhibition (zero-point plate). The IC50 values were determined using a 4-parameter fit with the aid of proprietary software.

A-375 = assay: Proliferation assay, Method 1 (crystal violet); details: Homo sapiens, 96 h, A-375 melanoma cell line, 4 days
Method: as §1, §2

Caco-2 = assay: Proliferation assay, Method 1 (crystal violet); details: Homo sapiens, 96 h, Caco-2 colon carcinoma cell line, 4 days
Method: as §1, §2

Caki2 = assay: Proliferation assay, Method 1 (crystal violet); details: Homo sapiens, CAKI-2, 96 h, Caki2 renal carcinoma cell line, 4 days
Method: as §1, §2

DU145 = assay: Proliferation assay, Method 1 (crystal violet); details: Homo sapiens, DU-145, 96 h, DU145 prostate carcinoma cell line, 4 days
Method: as §1, §2

HCT 116 = assay: Proliferation assay, Method 1 (crystal violet); details: Homo sapiens, 96 h, HCT 116 colon carcinoma cell line, 4 days
Method: as §1, §2

HT-29 = assay: Proliferation assay, Method 1 (crystal violet); details: Homo sapiens, 96 h, HT-29 colon carcinoma cell line, 4 days
Method: as §1, §2

HeLa = assay: Proliferation assay, Method 1 (crystal violet); details: Homo sapiens, 96 h, HeLa cervix carcinoma cell line, 4 days
Method: as §1, §2

MCF7 = assay: Proliferation assay, Method 1 (crystal violet); details: Homo sapiens, 96 h, MCF7 breast tumour cell line, 4 days
Method: as §1, §2

MIAPaCa-2 = assay: Proliferation assay, Method 1 (crystal violet); details: Homo sapiens, MIA PaCa-2, 96 h, MIAPaCa-2 pancreas carcinoma cell line, 4 days
Method: as §1, §2

PC3 = assay: Proliferation assay, Method 1 (crystal violet); details: Homo sapiens, PC-3, 96 h, PC3 prostate carcinoma cell line, 4 days
Method: as §1, §2

SK-BR-3 = assay: Proliferation assay, Method 1 (crystal violet); details: Homo sapiens, 96 h, SK-BR-3 breast tumour cell line, 4 days
Method: as §1, §2

SW480 = assay: Proliferation assay, Method 1 (crystal violet); details: Homo sapiens, 96 h, SW480 colon carcinoma cell line, 4 days
Method: as §1, §2

A549 = assay: Proliferation assay (listed under Method 1 and Method 2); details: Homo sapiens; A549 (non-small-cell lung carcinoma); method 1 or 2
Method: as §1, §2

MCF 10A = assay: as above; details: Homo sapiens; MCF 10A breast cell line; method 1 or 2
Method: as §1, §2

NCI-H1975 = assay: as above; details: Homo sapiens; NCI-H1975 (non-small-cell lung carcinoma); method 1 or 2
Method: as §1, §2

NCI-H460 = assay: as above; details: Homo sapiens; NCI-H460 (non-small-cell lung carcinoma); method 1 or 2
Method: as §1, §2

NCI-H69 = assay: as above; details: Homo sapiens; NCI-H69 (small-cell lung carcinoma); method 1 or 2
Method: as §1, §2

NCI-H810 = assay: Proliferation assay, Method 2 (Vybrant MTT); details: Homo sapiens, NCI-H810 (non-small-cell lung carcinoma)
NCI-H441 = assay: Proliferation assay, Method 2 (Vybrant MTT); details: Homo sapiens, NCI-H441 (papillary lung carcinoma)
NCI-H1838 = assay: Proliferation assay, Method 2 (Vybrant MTT); details: Homo sapiens, NCI-H1838 (non-small-cell lung carcinoma)
NCI-H2030 = assay: Proliferation assay, Method 2 (Vybrant MTT); details: Homo sapiens, NCI-H2030 (non-small-cell lung carcinoma)
NCI-H358 = assay: Proliferation assay, Method 2 (Vybrant MTT); details: Homo sapiens, NCI-H358 (non-small-cell lung carcinoma)
NCI-H1793 = assay: Proliferation assay, Method 2 (Vybrant MTT); details: Homo sapiens, NCI-H1793 (non-small-cell lung carcinoma)
NCI-H1048 = assay: Proliferation assay, Method 2 (Vybrant MTT); details: Homo sapiens, NCI-H1048 (small-cell lung carcinoma)
SK-MES-1 = assay: Proliferation assay, Method 2 (Vybrant MTT); details: Homo sapiens, SK-MES-1 (squamous-cell carcinoma)
NCI-H2347 = assay: Proliferation assay, Method 2 (Vybrant MTT); details: Homo sapiens, NCI-H2347 (non-small-cell lung carcinoma)
NCI-H23 = assay: Proliferation assay, Method 2 (Vybrant MTT); details: Homo sapiens, NCI-H23 (non-small-cell lung carcinoma)
NCI-H2170 = assay: Proliferation assay, Method 2 (Vybrant MTT); details: Homo sapiens
NCI-H2228 = assay: Proliferation assay, Method 2 (Vybrant MTT); details: Homo sapiens, NCI-H2228 (non-small-cell lung carcinoma)
NCI-H661 = assay: Proliferation assay, Method 2 (Vybrant MTT); details: Homo sapiens, NCI-H661 (non-small-cell lung carcinoma)
NCI-H1703 = assay: Proliferation assay, Method 2 (Vybrant MTT); details: Homo sapiens, NCI-H1703 (non-small-cell lung carcinoma)
NCI-H1581 = assay: Proliferation assay, Method 2 (Vybrant MTT); details: Homo sapiens, NCI-H1581 (non-small-cell lung carcinoma)
NCI-H226 = assay: Proliferation assay, Method 2 (Vybrant MTT); details: Homo sapiens, NCI-H226 (mesothelioma)
NCI-H1563 = assay: Proliferation assay, Method 2 (Vybrant MTT); details: Homo sapiens, NCI-H1563 (non-small-cell lung carcinoma)
NCI-H522 = assay: Proliferation assay, Method 2 (Vybrant MTT); details: Homo sapiens, NCI-H522 (non-small-cell lung carcinoma)
ChaGo-K-1 = assay: Proliferation assay, Method 2 (Vybrant MTT); details: Homo sapiens, ChaGo-K-1 (undifferentiated bronchial carcinoma)
NCI-H1437 = assay: Proliferation assay, Method 2 (Vybrant MTT); details: Homo sapiens, NCI-H1437 (non-small-cell lung carcinoma)

With C[C@@H](O)[C@@H](C)Oc1nc(Nc2ccc([S@](=N)(=O)C3CC3)cc2)ncc1C(F)(F)F [Compound A, (2R,3R)-3-{[2-{[4-(R-cyclopropylsulphonimidoyl)phenyl]amino}-5-(trifluoromethyl)pyrimidin-4-yl]oxy}butan-2-ol] the IC50 (KPL-1) was 6.44 nM, the IC50 (MDA-MB-453) was 15.1 nM and the IC50 (Hs 578T) was 16.8 nM. It also gave an IC50 (MDA-MB-231) of 20.2 nM, an IC50 (MDA-MB-468) of 28.8 nM and an IC50 (ZR-75-1) of 32.5 nM. The IC50 (T-47D) was 33.8 nM, the IC50 (MDA-MB-435s) was 36.4 nM and the IC50 (DU-4475) was 37.3 nM. The IC50 (BT-20) was 38.1 nM, the IC50 (BT-474) was 42.6 nM and the IC50 (EVSA-T) was 45 nM. The IC50 (BT-549) was 84.1 nM, the IC50 (786-O) was 20 nM and the IC50 (A-375) was 14 nM. It also gave an IC50 (Caco-2) of 16 nM, an IC50 (Caki2) of 26 nM and an IC50 (DU145) of 8 nM. For the same compound, the IC50 (HCT 116) was 18 nM, the IC50 (HT-29) was 29 nM and the IC50 (HeLa) was 12 nM. It also gave an IC50 (MCF7) of 15 nM, an IC50 (MIAPaCa-2) of 21 nM and an IC50 (PC3) of 25 nM. For the same compound, the IC50 (SK-BR-3) was 13 nM, the IC50 (SW480) was 15 nM and the IC50 (A549) was 31 nM. For the same compound, the IC50 (MCF 10A) was 20 nM, the IC50 (NCI-H1975) was 24 nM and the IC50 (NCI-H460) was 27 nM. For the same compound, the IC50 (NCI-H69) was 27 nM, the IC50 (NCI-H810) was 9.01 nM and the IC50 (NCI-H441) was 10 nM. For the same compound, the IC50 (NCI-H1838) was 15.9 nM, the IC50 (NCI-H2030) was 17.7 nM and the IC50 (NCI-H358) was 19.4 nM. For the same compound, the IC50 (NCI-H1793) was 22.5 nM, the IC50 (NCI-H1048) was 25 nM and the IC50 (SK-MES-1) was 26.5 nM. For the same compound, the IC50 (NCI-H2347) was 28 nM, the IC50 (NCI-H23) was 45.4 nM and the IC50 (NCI-H2170) was 48.7 nM. It also gave an IC50 (NCI-H2228) of 52.1 nM, an IC50 (NCI-H661) of 53.1 nM and an IC50 (NCI-H1703) of 53.6 nM. It also gave an IC50 (NCI-H1581) of 53.8 nM, an IC50 (NCI-H226) of 54.6 nM and an IC50 (NCI-H1563) of 59.1 nM. For the same compound, the IC50 (NCI-H522) was 65.4 nM, the IC50 (ChaGo-K-1) was 69.4 nM and the IC50 (NCI-H1437) was 69.9 nM.
